Laboratory results reported in US7855166B2, “Sulfonylamino(thio)carbonyl compounds” (Bayer Cropscience GmbH, priority 2005, dated 2010).

How the values were obtained:
[1] = tested on: weed plants such as Sinapis alba, Chrysanthemum segetum, Avena sativa, Stellaria media, Echinochloa crus-galli, Lolium multiflorum, Setaria viridis, Abutilon …; assay: Pre-emergence effect on weeds (greenhouse pot test, visual scoring); assay type: in vivo; settings: applied pre-emergence at a rate of 0.3 kg or less of active substance per hectare; scored after 3 to 4 weeks in comparison to untreated controls
[2] = tested on: weed plants such as Sinapis alba, Echinochloa crus-galli, Lolium multiflorum, Chrysanthemum segetum, Setaria viridis, Abutilon theophrasti, Amaranthus …; assay: Post-emergence effect on weeds (greenhouse pot test, visual scoring); assay type: in vivo; settings: applied post-emergence (three-leaf stage) at a rate of 0.3 kg or less of active substance per hectare; scored after about 3 to 4 weeks in comparison to untreated controls

| SMILES | herbicidal action against weed plants (visual scoring of plant damage or emergence damage) [1] | herbicidal action against weed plants (effect scored visually) [2] |
| --- | --- | --- |
| CCCCc1ccc(S(=O)(=O)NC(=O)n2nc(OCC)n(C3CC3)c2=O)c(I)c1 [Compound 1.887] | very good herbidical action | very good herbicidal action |
| Cc1cccc(I)c1S(=O)(=O)NC(=O)n1nc(OC(C)C)n(C)c1=O [Compound 1.040] | very good herbidical action | very good herbicidal action |
| CCCc1ccc(S(=O)(=O)NC(=O)n2nc(OC(C)C)n(C)c2=O)c(I)c1 [Compound 1.879] | very good herbidical action | very good herbicidal action |
| COc1nn(C(=O)NS(=O)(=O)c2c(I)cccc2OCC2CC2)c(=O)n1C [Compound 1.346] | very good herbidical action | very good herbicidal action |
| CCCOc1nn(C(=O)NS(=O)(=O)c2cc(C)c(C)cc2I)c(=O)n1C [Compound 1.864] | very good herbidical action | very good herbicidal action |
| CCOc1nn(C(=O)NS(=O)(=O)c2ccc(C(F)(F)F)cc2I)c(=O)n1C1CC1 [Compound 1.891] | very good herbidical action | very good herbicidal action |
| CCCOc1nn(C(=O)NS(=O)(=O)c2ccccc2I)c(=O)n1C [Compound 1.005] | very good herbidical action | very good herbicidal action |
| CCOc1nn(C(=O)NS(=O)(=O)c2ccc(Cl)cc2I)c(=O)n1C [Compound 1.870] | very good herbidical action | very good herbicidal action |
| CCCOc1nn(C(=O)NS(=O)(=O)c2ccc(C(F)(F)F)cc2I)c(=O)n1C [Compound 1.894] | very good herbidical action | very good herbicidal action |
| CC(C)Oc1nn(C(=O)NS(=O)(=O)c2c(Cl)ccc(Cl)c2I)c(=O)n1C [Compound 1.852] | very good herbidical action | very good herbicidal action |
| COc1nn(C(=O)NS(=O)(=O)c2ccc(C)c(F)c2I)c(=O)n1C1CC1 [Compound 1.859] | very good herbidical action | very good herbicidal action |
| COc1nn(C(=O)NS(=O)(=O)c2cccc(Cl)c2I)c(=O)n1C1CC1 [Compound 1.832] | very good herbidical action | very good herbicidal action |
| CC(C)Oc1nn(C(=O)NS(=O)(=O)c2c(Cl)cc(C(F)(F)F)cc2I)c(=O)n1C [Compound 1.845] | very good herbidical action | very good herbicidal action |
| COc1nn(C(=O)NS(=O)(=O)c2c(C)cccc2I)c(=O)n1C1CC1 [Compound 1.042] | very good herbidical action | very good herbicidal action |
| CC(C)Oc1nn(C(=O)NS(=O)(=O)c2c(I)cccc2C(F)(F)F)c(=O)n1C [Compound 1.138] | very good herbidical action | very good herbicidal action |
| COc1nn(C(=O)NS(=O)(=O)c2c(C)cccc2I)c(=O)n1C [Compound 1.037] | very good herbidical action | very good herbicidal action |
| COc1nn(C(=O)NS(=O)(=O)c2cc(C(F)(F)F)ccc2I)c(=O)n1C1CC1 [Compound 1.839] | very good herbidical action | very good herbicidal action |
| CCCOc1nn(C(=O)NS(=O)(=O)c2c(OC)ccc(Cl)c2I)c(=O)n1C [Compound 1.818] | very good herbidical action | very good herbicidal action |
| CCCCOc1cccc(I)c1S(=O)(=O)NC(=O)n1nc(OC(C)C)n(C)c1=O [Compound 1.276] | very good herbidical action | very good herbicidal action |
| COc1nn(C(=O)NS(=O)(=O)c2ccc(Cl)cc2I)c(=O)n1C1CC1 [Compound 1.873] | very good herbidical action | very good herbicidal action |
| CCOc1nn(C(=O)NS(=O)(=O)c2ccc(C)c(F)c2I)c(=O)n1C1CC1 [Compound 1.860] | very good herbidical action | very good herbicidal action |
| COc1nn(C(=O)NS(=O)(=O)c2c(Cl)ccc(Cl)c2I)c(=O)n1C [Compound 1.849] | very good herbidical action | very good herbicidal action |
| Cc1ccc(S(=O)(=O)NC(=O)n2nc(OC(C)C)n(C)c2=O)c(I)c1F [Compound 1.858] | very good herbidical action | very good herbicidal action |
| CCOc1nn(C(=O)NS(=O)(=O)c2c(F)cccc2I)c(=O)n1C [Compound 1.022] | very good herbidical action | very good herbicidal action |
| CC(C)Oc1nn(C(=O)NS(=O)(=O)c2cc(C(F)(F)F)ccc2I)c(=O)n1C [Compound 1.838] | very good herbidical action | very good herbicidal action |
| COc1ccc(Cl)c(I)c1S(=O)(=O)NC(=O)n1nc(OC(C)C)n(C)c1=O [Compound 1.819] | very good herbidical action | very good herbicidal action |
